In experiment [1] the test system is Saccharomyces cerevisiae growth inhibition, permissive control. As to the kind of experiment: concentration-response yeast growth inhibition under permissive conditions, counter-assay for yeast lifespan-shortening chemical project (AID 850).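 Further: growth read as optical density after one day of incubation.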
Experiment in experiment [2]: as above
As to conditions: Saccharomyces cerevisiae growth inhibition, permissive control, measured here: maximum growth inhibition, stronger effect = higher value.

Structures are written as SMILES. Calls of active or inactive are those of the source. How the calls were made is not given here.

Take `Brc1ccccc1-c1nnc(CSc2nnc3sc4ccccc4n23)o1`: the IC50 in experiment [1] is > 100 µM (inactive). The inhibition in experiment [2] (at 6.25 µM) stood at 13.3%.
For `O=C1C=C(c2ccc(Cl)cc2)C(=O)N1Nc1ccccc1`, the half-inhibitory concentration (IC50) in experiment [1] is 6.75 µM. Also, the inhibition in experiment [2] (at 50 µM) came out at 99.4%.
On the same counts, the results for `CCCC(=O)NC(c1cccs1)c1cc([N+](=O)[O-])c2cccnc2c1O` (stereo not drawn) are 24.1 µM and 96.5%.
Taken in the same sequence, the figures for `CCSc1nc(N)nc(-c2cccs2)c1C#N` were 35.2 µM and 70.4%.
Turning to `O=C1CC(N2CCN(c3nc4ccccc4s3)CC2)C(=O)N1Cc1cccs1` (stereo not drawn), the IC50 in experiment [1] is > 100 µM (inactive). Besides, the inhibition in experiment [2] (at 0.781 µM) was 28.5%.
`Cc1oc(-c2cccs2)nc1CS(=O)CC(=O)NC1CCCCCC1` (stereo not drawn): the IC50 in experiment [1] was > 100 µM (inactive). In experiment [2] (at 6.25 µM), the inhibition stood at 18.9%.
In the case of `Cc1ccc(CNC(=O)CS(=O)Cc2nc(-c3cccs3)oc2C)cc1` (stereo not drawn), the IC50 in experiment [1] is > 100 µM (inactive). In experiment [2] (at 0.391 µM), this compound gave an inhibition of 13.8%.
Taken in the same sequence, the figures for `Cc1ccc(-c2[nH]nc(N)c2N=Nc2ccccc2C)cc1` were > 100 µM (inactive) and 17.6%.
Regarding `CNc1nnc(-c2cc3cc(Cl)ccc3oc2=O)s1`, the IC50 in experiment [1] was > 100 µM (inactive). The same compound displayed an inhibition in experiment [2] (at 25 µM) of 12.5%.
Turning to `COc1ccc(NCc2nc3ccccc3n2CCOc2ccc(C)cc2)cc1`, the IC50 in experiment [1] is 42.2 µM. This compound displayed an inhibition in experiment [2] (at 50 µM) of 52.7%.
Taken in the same sequence, the figures for `CC(=O)/C(=N\Nc1ccc(C)cc1)N1CCOCC1` were 5.2 µM and 96.4%.
Taken in the same sequence, the figures for `CCOC(=O)c1cnc(-n2nc(C)cc2C)nc1NC1CCCCC1` were 42.8 µM and 57.5%.
Turning to `Cc1ccc(-c2nc(N)sc2-c2ccccc2)cc1C`, the IC50 in experiment [1] was > 100 µM (inactive). In experiment [2] (at 6.25 µM), this compound displayed an inhibition of 16%.
`CC1(CCc2ccccc2)NC(=S)N(c2ccc(Cl)cc2)N1` (stereo not drawn): the IC50 in experiment [1] is 20.1 µM. Besides, the inhibition in experiment [2] (at 50 µM) came out at 99.6%.
`Cc1ccc(N/N=C/c2cccnc2)cc1`: the IC50 in experiment [1] was 13 µM. Also, the inhibition in experiment [2] (at 50 µM) worked out at 97%.
Taken in the same sequence, the figures for `CC(=O)n1cc(C(C[N+](=O)[O-])SCCN)c2ccccc21` (stereo not drawn) were 13.9 µM and 100%.
Taken in the same sequence, the figures for `Cn1c(=O)c(C(=O)Nc2ncccn2)c(O)c2ccccc21` were 49.9 µM and 56.6%.
Take `Oc1cccc2ccc(/C=C/c3cccs3)nc12`: the IC50 in experiment [1] was 37.4 µM. Further, in experiment [2] (at 50 µM), the inhibition worked out at 67.1%.
Turning to `Cc1nn2c3ccccc3nc2c2ccccc12`, the IC50 in experiment [1] is > 100 µM (inactive). In addition, the inhibition in experiment [2] (at 0.195 µM) came to 15.3%.
In the case of `Cc1ccc2nc(/C(C#N)=C\c3ccc([N+](=O)[O-])o3)[nH]c2c1`, in experiment [1], the IC50 was 9.15 µM. The inhibition in experiment [2] (at 50 µM) was 99.4%.
Taken in the same sequence, the figures for `Oc1ccc(-c2csc(-c3ccccc3)n2)cc1O` were 21.9 µM and 99.8%.
On to `Cc1cc(O)c(/C=N/Nc2ccc(Cl)cc2)c(=O)o1`, for which the IC50 in experiment [1] was 3.93 µM. The inhibition in experiment [2] (at 25 µM) stood at 98.2%.
As for `Nc1ccc(SC(F)(F)F)cc1C(=O)c1ccccc1`, in experiment [1], the IC50 is > 100 µM (inactive). The same compound displayed an inhibition in experiment [2] (at 0.391 µM) of 14.9%.
Take `Oc1ccc(Cl)cc1Cc1cc(Cl)ccc1O`: the IC50 in experiment [1] is 25.8 µM. This compound came in with an inhibition in experiment [2] (at 50 µM) of 99%.
With `O=c1[nH][nH]cc1C=Nc1ccccc1O`, in experiment [1], the IC50 is > 100 µM (inactive). This compound showed an inhibition in experiment [2] (at 1.563 µM) of 12.5%.
For `CCCS(=O)(=O)c1nnnn1-c1cccc(OC)c1`, in experiment [1], the IC50 was 5.29 µM. The compound also displayed an inhibition in experiment [2] (at 50 µM) of 99%.
Regarding `c1ccc(Cc2nnc3sc(-c4ccc5c(c4)OCCO5)nn23)cc1`, in experiment [1], the IC50 is > 100 µM (inactive). Moreover, in experiment [2] (at 1.563 µM), the inhibition turned out to be 14.5%.
As to `Nc1nsc2ccccc12`, in experiment [1], the IC50 was 35.8 µM. Besides, in experiment [2] (at 50 µM), the inhibition was found to be 63.5%.
On the same counts, the results for `Oc1cc(-c2ccccc2)c2ccccc2c1` are 35.3 µM and 92.8%.
As to `Cc1cc(Cl)ccc1N=c1ssnc1Cl`, in experiment [1], the IC50 is > 100 µM (inactive). The compound also gave an inhibition in experiment [2] (at 12.5 µM) of 14%.
Regarding `COc1cccc(/C=N/Nc2ncc(C(F)(F)F)cc2Cl)c1O`, the IC50 in experiment [1] is > 100 µM (inactive). Besides, in experiment [2] (at 50 µM), the inhibition was found to be 29.3%.
Regarding `CCOC(=O)C(=NCCCN(C)C)NNc1ccc(Br)cc1`, in experiment [1], the IC50 is 5.8 µM. In addition, the inhibition in experiment [2] (at 50 µM) is 97.4%.
Take `O=C(O)c1cc2c(s1)-c1ccccc1OC2`: the IC50 in experiment [1] is > 100 µM (inactive). Further, in experiment [2] (at 0.195 µM), the inhibition was 15.9%.
Regarding `Oc1ccc2ccccc2c1N=Nc1ccccn1`, the 50% inhibitory concentration (IC50) in experiment [1] was 25 µM. In experiment [2] (at 50 µM), this compound yielded an inhibition of 97.5%.

The values are drawn from PubChem BioAssay AID850 (SRMLSC, 2007).
